From patent publication US4734435A, “N-[[6-methoxy-5-(trifluoromethyl)-1-naphthalenyl]-thioxome thyl]-N-methylglycine S-oxide and the amide thereof” (American Home Products Corp., priority 1986, dated 1988)
Blank lines part the entries; values can stand above or below the compound they belong to.

Key:
aldose reductase = target: T1, aldose reductase (Bos taurus, UniProt P16116); assay: In vitro inhibition of aldose reductase from bovine lens (modified Hayman and Kinoshita procedure); assay type: biochemical; conditions: 10^-7 M; enzyme from bovine lens
T1 construct: preparation of the enzyme from bovine lens; from tissue; host or cells: bovine lens
Method: Only two minor reagent changes were made: (a) The rinsing mixture was an aqueous 5% (w/v) trichloroacetic acid solution and (b) the stock solution was prepared by dissolving 25 mg of dulcitol in 100 mL of an aqueous trichloroacetic acid solution. [N.B.: For each experiment the average value found in the tissue from rats fed the glucose diet was subtracted from the individual values found in the corresponding tissue in galactose-fed rats to obtain the amount of polyol accumulated.] […] In the present case the procedure of Hayman and Kinoshita was modified in that the final chromatography step was omitted in the preparation of the enzyme from bovine lens.

[1] = system: galactitol accumulation in the lenses and sciatic nerves; assay: In vivo lowering of dulcitol (galactitol) accumulation in galactosemic rats; design: species or system rat (male, Sprague-Dawley); conditions: for effect on accumulation of galactitol in the lenses and sciatic nerves (in words): rats fed galactose
Excerpt: The aldose reductase inhibiting property of the compounds of this invention and the utilization of the compounds in preventing, diminishing and alleviating diabetic complications are demonstrable in experiments using galactosemic rats, see Dvornik et al, cited above. Such experiments are exemplified hereinbelow after the listing of the following general comments pertaining to these experiments:
(a) Four or more groups of six male rats, 50-70 g, Sprague-Dawley strain, were used. The first group, the control group, was fed a mixture of laboratory chow (rodent Laboratory Chow, Purina) and glucose at 20% (w/w %) concentration. The untreated galactosemic group and the drug-treated groups were fed a similar diet in which galactose is substituted for glucose. The test compound was either admixed to the diet or administered by gavage. In experiments involving compound administration in the diet, the average dose administered was calculated from the actual food intake of the animals in each group. The concentration of galactose in the diet of the treated groups was the same as that for the untreated galactosemic group.
(b) After four days, the animals were killed by decapitation. The eyeballs were removed and punctured with a razor blade; the freed lenses were rolled gently on filter paper and weighed. The sciatic nerves were dissected as completely as possible and weighed. Both tissues when frozen can be kept up to two weeks before being analyzed for galactitol.
(c) The polyol determination was performed by a modification of the procedure of M. Kraml and L. Cosyns, Clin. Biochem., 2, 373 (1969). Only two minor reagent changes were made: (a) The rinsing mixture was an aqueous 5% (w/v) trichloroacetic acid solution and (b) the stock solution was prepared by dissolving 25 mg of dulcitol in 100 mL of an aqueous trichloroacetic acid solution. [N.B.: For each experiment the average value found in the tissue from rats fed the glucose diet was subtracted from the individual values found in the corresponding tissue in galactose-fed rats to obtain the amount of polyol accumulated.] The aldose reductase inhibiting effects of the compounds of formula (I) were also tested by employing an in vitro testing procedure similar to that described by S. Hayman and J. H. Kinoshita, J. Biol. Chem., 240, 877 (1965). In the present case the procedure of Hayman and Kinoshita was modified in that the final chromatography step was omitted in the preparation of the enzyme from bovine lens.
The figures under L and N represent the percentage decrease of galactitol accumulation in the tissues of the lens and sciatic nerve, respectively, for treated rats as compared to untreated rats.

[2] = Metabolites of tolrestat found in humans and other mammals; assay type: in vivo
[3] = lens, 50 mg/kg/day, gavage (same experiment), four days
[4] = sciatic nerve, 50 mg/kg/day, gavage (same experiment), four days

inhibition at 0.1 µM (aldose reductase): 3%
SMILES: COc1ccc2c(C(=S=O)N(C)CC(N)=O)cccc2c1C(F)(F)F [[[[6-Methoxy-5-(trifluoromethyl)-1-naphthalenyl]thioxomethyl]methylamino]-acetamide S-oxide]
% lowering dulcitol accumulation in vivo, L (lens) ([1]; 58 mg/kg/day, 96 h): 0% | % lowering dulcitol accumulation in vivo, N (sciatic nerve) ([1]; 58 mg/kg/day, 96 h): 77% | comparison with tolrestat at 10 mg/kg/day (in words) ([1]; at a dose of 58 mg/kg/day): comparable results | % lowering dulcitol accumulation in vivo, L (lens) ([1]; lens, 12 mg/kg/day, mode of administration not given, four days): 0% | effect on accumulation of galactitol in the lenses and sciatic nerves (in words) [1]: diminish the accumulation of galactitol in the lenses and sciatic nerves of rats fed galactose | % lowering dulcitol accumulation in vivo, N (sciatic nerve) ([1]; sciatic nerve, 12 mg/kg/day, mode of administration not given, four days): 45%

SMILES: COc1ccc2c(C(=O)N(C)CC(=O)O)cccc2c1C(F)(F)F [N--[[6-methoxy-5-(trifluoromethyl)-1-naphthalenyl]carbonyl]-N--methylglycine, reference compound]
% lowering dulcitol accumulation in vivo, L (lens) [1, 3]: 0% | % lowering dulcitol accumulation in vivo, N (sciatic nerve) [1, 4]: 59%

SMILES: COc1ccc2c(C(=S)N(C)CC(=O)O)cccc2c1C(F)(F)F [tolrestat, N-[[6-methoxy-5-(trifluoromethyl)-1-naphthalenyl]thioxomethyl]-N-methylglycine, reference compound]
% lowering dulcitol accumulation in vivo, L (lens) ([1]; lens, 10 mg/kg/day, gavage (same experiment), four days): 0% | % lowering dulcitol accumulation in vivo, N (sciatic nerve) ([1]; sciatic nerve, 10 mg/kg/day, gavage (same experiment), four days): 81%

inhibition at 0.1 µM (aldose reductase): 80%
SMILES: COc1ccc2c(C(=S=O)N(C)CC(=O)O)cccc2c1C(F)(F)F [N-[[6-Methoxy-5-(trifluoromethyl)-1-naphthalenyl]thioxomethyl]-N-methylglycine S-oxide]
occurrence as metabolite of tolrestat (in words) [2]: one of the metabolites of tolrestat found in humans and other mammals | comparison with tolrestat at 10 mg/kg/day (in words) ([1]; at a dose of 50 mg/kg/day): comparable results | % lowering dulcitol accumulation in vivo, L (lens) ([1]; lens, 20 mg/kg/day, diet, four days): 0% | % lowering dulcitol accumulation in vivo, L (lens) [1, 3]: 0% | % lowering dulcitol accumulation in vivo, L (lens) ([1]; lens, 115 mg/kg/day, diet, four days): 20% | effect on accumulation of galactitol in the lenses and sciatic nerves (in words) [1]: diminish the accumulation of galactitol in the lenses and sciatic nerves of rats fed galactose | % lowering dulcitol accumulation in vivo, N (sciatic nerve) ([1]; sciatic nerve, 20 mg/kg/day, diet, four days): 45% | % lowering dulcitol accumulation in vivo, N (sciatic nerve) [1, 4]: 70% | % lowering dulcitol accumulation in vivo, N (sciatic nerve) ([1]; sciatic nerve, 115 mg/kg/day, diet, four days): 100%
